Experimental data: patent US20020137929A1, “1 - (3-heterocyclylphenyl) isothiourea, -isourea, -guanidine and -amidine herbicidal agents” (Intellectual Property Department, BASF Aktiengesellschaft, priority 1998, published 2002)

Assays:
[1] = test system: CYPIR (Rice Flatsedge); test: Preemergence weed control under flooded paddy conditions; assay type: in vivo, Cyperus iria; details: rated 3-4 weeks after treatment
Procedure, shortened: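 Herbicidal effect is scored visually on a 0-9 scale against an untreated control, three to four weeks after compounds are pipetted into the flood water (1.5 to 3 cm deep) over seeds planted in silt loam at 0.5 cm depth. Rates: about 0.0313 to 0.500 kg/ha.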

[2] = test system: ABUTH (Velvetleaf); test: Postemergence herbicidal evaluation; assay type: in vivo, Abutilon theophrasti; details: postemergence
Procedure, shortened: (§1)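 Herbicidal effect was judged by eye on a 0–9 scale covering stand, vigor, deformity, size and chlorosis, compared with controls, four to five weeks after seedlings about two weeks old were sprayed (40 psi, ~0.0156–0.500 kg/ha).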

[3] = test system: SAGPY (Arrowhead (Pygmaea)); test: Postemergence weed control under flooded paddy conditions; assay type: in vivo, Sagittaria pygmaea; details: postemergence weeds
Procedure, shortened: (§2)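 Flood-water application, about 0.0313–0.500 kg/ha a.i. in aqueous/acetone 50/50 v/v; water depth 1.5–3 cm throughout. Weeds 3–5 cm, rice 1.5–2.5 leaf. Greenhouse; 0–9 visual rating vs control at 3–4 wk.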

[4] = test system: CYPSE (Flatsedge); test: as above; assay type: in vivo, Cyperus serotinus; details: postemergence weeds
Procedure, shortened: as §2

[5] = test system: GLXMAW (Soybean, Williams); test: Postemergence herbicidal evaluation; assay type: in vivo, Glycine max, (L.) Merr. cv Williams; details: postemergence
Procedure, shortened: as §1

[6] = test system: SETVI (Foxtail, Green); test: Preemergence herbicidal evaluation; assay type: in vivo, Setaria viridis; details: rated 4-5 weeks after treatment; for SETVI rating: preemergence, 0-9 scale
Procedure, shortened: (§3)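 Sown cups got a single aqueous acetone spray of test compound (roughly 0.0156–0.500 kg/ha) before seedlings emerged. Evaluation, 4–5 weeks on, used a 0–9 visual scale covering plant stand, vigor, size, malformation, chlorosis and general appearance compared with controls.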

[7] = test system: SETVI (Foxtail, Green); test: Postemergence herbicidal evaluation; assay type: in vivo, Setaria viridis; details: postemergence
Procedure, shortened: as §1

[8] = test system: ORYSAT (Rice, Tebonnet); test: Postemergence herbicidal evaluation; assay type: in vivo, Oryza sativa, (L.) Tebonnet; details: postemergence
Procedure, shortened: as §1

[9] = test system: ZEAMX (Corn, Field); test: Postemergence herbicidal evaluation; assay type: in vivo, Zea mays; details: postemergence
Procedure, shortened: as §1

[10] = test system: GALAP (Galium); test: Preemergence herbicidal evaluation; assay type: in vivo, Galium aparine; details: rated 4-5 weeks after treatment; for GALAP rating: preemergence, 0-9 scale
Procedure, shortened: as §3

[11] = test system: TRZAWR (Wheat, Winter, cv Riband); test: Postemergence herbicidal evaluation; assay type: in vivo, Triticum aestivum; details: postemergence
Procedure, shortened: as §1

[12] = test system: CHEAL (Lambsquarters, Common); test: Postemergence herbicidal evaluation; assay type: in vivo, Chenopodium album; details: postemergence
Procedure, shortened: as §1

[13] = test system: AMBEL (Ragweed, Common); test: Preemergence herbicidal evaluation; assay type: in vivo, Ambrosia artemisifolia; details: rated 4-5 weeks after treatment; for AMBEL rating: preemergence, 0-9 scale
Procedure, shortened: as §3

[14] = test system: ECHORC (Watergrass (Calif.)); test: Postemergence weed control under flooded paddy conditions; assay type: in vivo, Echinochloa oryzoides; details: postemergence weeds
Procedure, shortened: as §2

[15] = rate 0.1160 kg/ha, 3-4 weeks after treatment
[16] = rate 0.2310 kg/ha, 3-4 weeks after treatment
[17] = rate 0.4630 kg/ha, 3-4 weeks after treatment
[18] = Rate 0.0313 kg/ha, rated 3 to 4 weeks after treatment
[19] = Rate 0.0625 kg/ha, rated 3 to 4 weeks after treatment
[20] = Rate 0.1250 kg/ha, rated 3 to 4 weeks after treatment
[21] = Rate 0.2500 kg/ha, rated 3 to 4 weeks after treatment

## CN(C)N1C(=O)CSC1=Nc1cc(-n2c(=O)cc(C(F)(F)F)n(C)c2=O)c(F)cc1Cl [Compound 23, 3-{4-Chloro-5-{[3-(dimethylamino)-4-oxo-2-thiazolidinylidine]amino}-2-fluorophenyl}-1-methyl-6-(trifluoromethyl)-2,4(1H,3H)-pyrimidinedione]
[1]; 0.1160 kg/ha
  Herbicidal rating CYPIR: 0.0
[1]; 0.2310 kg/ha
  Herbicidal rating CYPIR: 0.0
[1]; 0.4630 kg/ha
  Herbicidal rating CYPIR: 0.0
[2]; rate 0.0158 kg/ha
  ABUTH herbicidal rating: 3.0
[2]; rate 0.0315 kg/ha
  ABUTH herbicidal rating: 4.0
[2]; rate 0.0630 kg/ha
  ABUTH herbicidal rating: 5.0
[3]; [15]
  Herbicidal rating SAGPY: 0.0
[3]; [16]
  Herbicidal rating SAGPY: 0.0
[3]; [17]
  Herbicidal rating SAGPY: 3.0
[4]; [15]
  Herbicidal rating CYPSE: 0.0
[4]; [16]
  Herbicidal rating CYPSE: 0.0
[4]; [17]
  Herbicidal rating CYPSE: 0.0
[5]; rate 0.0158 kg/ha
  GLXMAW herbicidal rating: 3.0
[5]; rate 0.0315 kg/ha
  GLXMAW herbicidal rating: 3.5
[5]; rate 0.0630 kg/ha
  GLXMAW herbicidal rating: 5.0
[6]; rate 0.0156 kg/ha
  SETVI preemergence herbicidal rating: 1.0
[6]; rate 0.0313 kg/ha
  SETVI preemergence herbicidal rating: 1.0
[6]; rate 0.0625 kg/ha
  SETVI preemergence herbicidal rating: 5.0
[6]; rate 0.1250 kg/ha
  SETVI preemergence herbicidal rating: 5.0
[6]; rate 0.2500 kg/ha
  SETVI preemergence herbicidal rating: 6.0
[7]; rate 0.0158 kg/ha
  SETVI herbicidal rating: 2.0
[7]; rate 0.0315 kg/ha
  SETVI herbicidal rating: 4.0
[7]; rate 0.0630 kg/ha
  SETVI herbicidal rating: 4.0
[8]; rate 0.0158 kg/ha
  ORYSAT herbicidal rating: 2.0
[8]; rate 0.0315 kg/ha
  ORYSAT herbicidal rating: 2.5
[8]; rate 0.0630 kg/ha
  ORYSAT herbicidal rating: 4.5
[9]; rate 0.0158 kg/ha
  ZEAMX herbicidal rating: 3.0
[9]; rate 0.0315 kg/ha
  ZEAMX herbicidal rating: 3.5
[9]; rate 0.0630 kg/ha
  ZEAMX herbicidal rating: 5.0
[10]; rate 0.0156 kg/ha
  GALAP preemergence herbicidal rating: 0.0
[10]; rate 0.0313 kg/ha
  GALAP preemergence herbicidal rating: 1.0
[10]; rate 0.0625 kg/ha
  GALAP preemergence herbicidal rating: 1.0
[10]; rate 0.1250 kg/ha
  GALAP preemergence herbicidal rating: 0.0
[10]; rate 0.2500 kg/ha
  GALAP preemergence herbicidal rating: 2.0
[11]; rate 0.0158 kg/ha
  TRZAWR herbicidal rating: 2.5
[11]; rate 0.0315 kg/ha
  TRZAWR herbicidal rating: 4.0
[11]; rate 0.0630 kg/ha
  TRZAWR herbicidal rating: 5.0
[12]; rate 0.0158 kg/ha
  CHEAL herbicidal rating: 2.0
[12]; rate 0.0315 kg/ha
  CHEAL herbicidal rating: 7.0
[12]; rate 0.0630 kg/ha
  CHEAL herbicidal rating: 9.0
[13]; rate 0.0156 kg/ha
  AMBEL preemergence herbicidal rating: 0.0
[13]; rate 0.0313 kg/ha
  AMBEL preemergence herbicidal rating: 0.0
[13]; rate 0.0625 kg/ha
  AMBEL preemergence herbicidal rating: 3.0
[13]; rate 0.1250 kg/ha
  AMBEL preemergence herbicidal rating: 6.0
[13]; rate 0.2500 kg/ha
  AMBEL preemergence herbicidal rating: 7.0
[14]; [15]
  Herbicidal rating ECHORC: 4.0
[14]; [16]
  Herbicidal rating ECHORC: 4.0
[14]; [17]
  Herbicidal rating ECHORC: 4.0

## CCOC(=O)CN1C(=O)C(CC(=O)NOC)SC1=Nc1cc(-n2c(=O)cc(C(F)(F)F)n(C)c2=O)c(F)cc1Cl (stereo not shown) [Compound 83, Ethyl 2-{{2-chloro-5-[3,6-dihydro-3-methyl-2,6-dioxo-4-(trifluoromethyl)-1(2H)-pyrimidinyl]-4-fluorophenyl}imino}-5-[(methoxycarbamoyl)methyl]-4-oxo-3-thiazolidineacetate]
[1]; 0.0313 kg/ha
  CYPIR herbicidal effect rating: 5.0
[1]; 0.0625 kg/ha
  CYPIR herbicidal effect rating: 6.0
[1]; 0.1250 kg/ha
  CYPIR herbicidal effect rating: 6.0
[1]; 0.2500 kg/ha
  CYPIR herbicidal effect rating: 7.0
[2]; rate 0.0156 kg/ha
  ABUTH herbicidal rating: 9.0
[2]; rate 0.0313 kg/ha
  ABUTH herbicidal rating: 9.0
[2]; rate 0.0625 kg/ha
  ABUTH herbicidal rating: 9.0
[2]; rate 0.1250 kg/ha
  ABUTH herbicidal rating: 9.0
[3]; [18]
  Herbicidal rating SAGPY: 7.0
[3]; [19]
  Herbicidal rating SAGPY: 7.0
[3]; [20]
  Herbicidal rating SAGPY: 7.0
[3]; [21]
  Herbicidal rating SAGPY: 9.0
[4]; [18]
  Herbicidal rating CYPSE: 0.0
[4]; [20]
  Herbicidal rating CYPSE: 3.0
[4]; [21]
  Herbicidal rating CYPSE: 5.0
[5]; rate 0.0156 kg/ha
  GLXMAW herbicidal rating: 4.5
[5]; rate 0.0313 kg/ha
  GLXMAW herbicidal rating: 6.5
[5]; rate 0.0625 kg/ha
  GLXMAW herbicidal rating: 8.0
[5]; rate 0.1250 kg/ha
  GLXMAW herbicidal rating: 8.5
[6]; 0.0156 kg/ha
  SETVI rating: 0.0
[6]; 0.0313 kg/ha
  SETVI rating: 0.0
[6]; 0.0625 kg/ha
  SETVI rating: 0.0
[6]; 0.1250 kg/ha
  SETVI rating: 2.0
[6]; 0.2500 kg/ha
  SETVI rating: 9.0
[6]; 0.5000 kg/ha
  SETVI rating: 9.0
[7]; rate 0.0156 kg/ha
  SETVI herbicidal rating: 0.0
[7]; rate 0.0313 kg/ha
  SETVI herbicidal rating: 2.0
[7]; rate 0.0625 kg/ha
  SETVI herbicidal rating: 8.0
[7]; rate 0.1250 kg/ha
  SETVI herbicidal rating: 8.0
[8]; rate 0.0156 kg/ha
  ORYSAT herbicidal rating: 1.5
[8]; rate 0.0313 kg/ha
  ORYSAT herbicidal rating: 2.5
[8]; rate 0.0625 kg/ha
  ORYSAT herbicidal rating: 3.0
[8]; rate 0.1250 kg/ha
  ORYSAT herbicidal rating: 3.0
[9]; rate 0.0156 kg/ha
  ZEAMX herbicidal rating: 4.5
[9]; rate 0.0313 kg/ha
  ZEAMX herbicidal rating: 7.5
[9]; rate 0.0625 kg/ha
  ZEAMX herbicidal rating: 7.5
[9]; rate 0.1250 kg/ha
  ZEAMX herbicidal rating: 7.5
[10]; 0.0156 kg/ha
  GALAP rating: 0.0
[10]; 0.0313 kg/ha
  GALAP rating: 0.0
[10]; 0.0625 kg/ha
  GALAP rating: 0.0
[10]; 0.1250 kg/ha
  GALAP rating: 0.0
[10]; 0.2500 kg/ha
  GALAP rating: 9.0
[10]; 0.5000 kg/ha
  GALAP rating: 9.0
[11]; rate 0.0156 kg/ha
  TRZAWR herbicidal rating: 3.5
[11]; rate 0.0313 kg/ha
  TRZAWR herbicidal rating: 4.0
[11]; rate 0.0625 kg/ha
  TRZAWR herbicidal rating: 4.5
[11]; rate 0.1250 kg/ha
  TRZAWR herbicidal rating: 6.5
[12]; rate 0.0156 kg/ha
  CHEAL herbicidal rating: 5.0
[12]; rate 0.0313 kg/ha
  CHEAL herbicidal rating: 7.0
[12]; rate 0.0625 kg/ha
  CHEAL herbicidal rating: 9.0
[12]; rate 0.1250 kg/ha
  CHEAL herbicidal rating: 9.0
[13]; 0.0156 kg/ha
  AMBEL rating: 0.0
[13]; 0.0313 kg/ha
  AMBEL rating: 0.0
[13]; 0.0625 kg/ha
  AMBEL rating: 0.0
[13]; 0.1250 kg/ha
  AMBEL rating: 9.0
[13]; 0.2500 kg/ha
  AMBEL rating: 9.0
[13]; 0.5000 kg/ha
  AMBEL rating: 9.0
[14]; [18]
  Herbicidal rating ECHORC: 5.0
[14]; [19]
  Herbicidal rating ECHORC: 6.0
[14]; [20]
  Herbicidal rating ECHORC: 7.0
[14]; [21]
  Herbicidal rating ECHORC: 7.0
